Test results as given in ChEMBL document CHEMBL3124910, “Discovery and structure-activity relationships study of novel thieno[2,3-b]pyridine analogues as hepatitis C virus inhibitors” (Bioorg Med Chem Lett, 2014).

Assays:
Hepatitis C virus [1] = test: Antiviral activity against HCV genotype 1b infected in human HuH7 cells assessed as inhibition of viral RNA replication after 72 hrs by luciferase reporter gene assay; type: functional, organism-based, Hepacivirus hominis; settings: Huh-7, 72 h
[2] = Cytotoxicity against human HuH7 cells after 72 hrs by MTT assay; type: cell-based, Huh-7
[3] = molecular target: T1, Inhibitor of nuclear factor kappa-B kinase subunit beta (Homo sapiens) (UniProt O14920); test: Inhibition of human IKKbeta at 10 uM after 40 mins by scintillation counting analysis in presence of [gamma-33P]ATP
T1 sequence (whole entry): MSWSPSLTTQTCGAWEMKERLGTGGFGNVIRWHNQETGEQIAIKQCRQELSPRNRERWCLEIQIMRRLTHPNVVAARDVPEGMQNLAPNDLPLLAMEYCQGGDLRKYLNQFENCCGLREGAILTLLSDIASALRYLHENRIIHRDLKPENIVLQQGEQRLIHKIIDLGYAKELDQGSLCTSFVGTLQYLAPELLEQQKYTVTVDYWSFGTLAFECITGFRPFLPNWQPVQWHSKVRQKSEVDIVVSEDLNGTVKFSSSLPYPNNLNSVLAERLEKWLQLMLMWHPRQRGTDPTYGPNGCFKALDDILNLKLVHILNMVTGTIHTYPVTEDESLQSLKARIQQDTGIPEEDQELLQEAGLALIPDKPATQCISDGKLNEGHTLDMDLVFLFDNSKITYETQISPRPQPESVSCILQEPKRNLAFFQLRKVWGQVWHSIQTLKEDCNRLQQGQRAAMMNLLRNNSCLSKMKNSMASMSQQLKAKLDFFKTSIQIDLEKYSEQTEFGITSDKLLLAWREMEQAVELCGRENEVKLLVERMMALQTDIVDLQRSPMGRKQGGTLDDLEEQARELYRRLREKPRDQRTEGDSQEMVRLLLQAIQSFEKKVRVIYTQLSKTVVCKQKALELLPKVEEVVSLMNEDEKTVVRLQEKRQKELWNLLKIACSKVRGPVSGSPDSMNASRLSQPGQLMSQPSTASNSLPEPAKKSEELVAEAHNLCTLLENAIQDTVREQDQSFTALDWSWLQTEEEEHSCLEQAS

[4] = molecular target: T2, Inhibitor of nuclear factor kappa-B kinase subunit alpha (Homo sapiens) (UniProt O15111); test: Inhibition of human IKKalpha at 10 uM after 40 mins by scintillation counting analysis in presence of [gamma-33P]ATP
T2 sequence (whole entry): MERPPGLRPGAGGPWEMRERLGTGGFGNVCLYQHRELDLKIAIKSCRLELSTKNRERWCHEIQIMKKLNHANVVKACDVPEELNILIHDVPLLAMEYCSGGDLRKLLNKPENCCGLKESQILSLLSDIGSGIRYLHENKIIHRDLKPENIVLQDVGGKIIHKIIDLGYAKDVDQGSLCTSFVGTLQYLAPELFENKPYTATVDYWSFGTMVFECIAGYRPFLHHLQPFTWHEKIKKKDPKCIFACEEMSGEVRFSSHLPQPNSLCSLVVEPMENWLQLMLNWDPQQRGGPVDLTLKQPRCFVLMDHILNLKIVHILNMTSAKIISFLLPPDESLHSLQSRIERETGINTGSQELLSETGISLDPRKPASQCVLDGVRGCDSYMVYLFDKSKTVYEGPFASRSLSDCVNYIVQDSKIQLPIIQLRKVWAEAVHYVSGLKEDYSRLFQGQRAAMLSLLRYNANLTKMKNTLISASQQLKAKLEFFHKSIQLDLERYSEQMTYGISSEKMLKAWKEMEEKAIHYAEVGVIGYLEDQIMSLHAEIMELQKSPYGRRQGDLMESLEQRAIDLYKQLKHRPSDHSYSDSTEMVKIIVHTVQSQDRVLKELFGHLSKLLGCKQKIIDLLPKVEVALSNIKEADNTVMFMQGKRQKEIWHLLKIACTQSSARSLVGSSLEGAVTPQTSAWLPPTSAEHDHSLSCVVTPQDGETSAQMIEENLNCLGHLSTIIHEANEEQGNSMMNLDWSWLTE

[5] = Cytotoxicity against human LO2 cells after 72 hrs by MTT assay; type: cell-based, L02
[6] = Cytotoxicity against human HEK293 cells after 72 hrs by MTT assay; type: cell-based
[7] = Selectivity index, ratio of CC50 for human HuH7 cells to EC50 for HCV genotype 1b infected in human HuH7 cells; set-up: species or system Huh-7
Hepatitis C virus [8] = test: Antiviral activity against HCV genotype 1b infected in human HuH7 cells assessed as inhibition of viral RNA replication at 20 uM after 72 hrs by luciferase reporter gene assay; type: functional, Hepacivirus hominis; settings: Huh-7, 72 h

Structure (SMILES) | EC50 (Hepatitis C virus [1]) [µM] | CC50 at 72 h [2] [µM] | further results
CN1CCN(C(=O)c2sc3nc(-c4ccccc4)cc(C(F)(F)F)c3c2N)CC1 | 11.4 | > 20 | 
COc1ccc(-c2cc(C(F)(F)F)c3c(N)c(C(N)=O)sc3n2)cc1 | 4 | 46.4 | inhibition [3]: 6%; inhibition [4]: 7%; CC50 at 72 h [5]: 26.2 µM; CC50 at 72 h [6]: 24.7 µM; Ratio CC50/EC50 [7]: 11.6
CCN(CC)C(=O)c1sc2nc(-c3ccccc3)cc(C(F)(F)F)c2c1N | 3.5 | > 100 | CC50 at 72 h [5]: > 100 µM; CC50 at 72 h [6]: > 100 µM; Ratio CC50/EC50 [7]: >28.6
Nc1c(C(=O)N2CCOCC2)sc2nc(-c3nccs3)cc(C(F)(F)F)c12 | 8.9 | > 20 | 
Nc1c(C(=O)O)sc2nc(-c3ccccc3)cc(C(F)(F)F)c12 | > 20 | > 20 | 
COc1cccc(-c2ccc3c(N)c(C(N)=O)sc3n2)c1 | > 20 | < 0.4 | 
Nc1c(C(=O)NCc2ccccc2)sc2nc(-c3ccccc3)cc(C(F)(F)F)c12 | > 20 | > 20 | 
Nc1c(C(=O)NCc2cccs2)sc2nc(-c3ccccc3)cc(C(F)(F)F)c12 | 8.2 | > 20 | 
COc1ccccc1-c1ccc2c(N)c(C(N)=O)sc2n1 | > 20 | > 20 | 
Nc1c(C(=O)N2CCOCC2)sc2nc(-c3ccc(F)cc3)cc(C(F)(F)F)c12 | 18.6 | > 20 | 
Nc1c(C(=O)N2CCOCC2)sc2nc(C3CC3)cc(C(F)(F)F)c12 | 9.7 | > 20 | 
Nc1c(C(=O)N2CCOCC2)sc2nc(-c3ccco3)cc(C(F)(F)F)c12 | 9.6 | > 20 | 
CCOC(=O)c1sc2nc(-c3cccs3)cc(C(F)(F)F)c2c1N | 10 | > 20 | 
Nc1c(C(=O)N2CCOCC2)sc2nc(-c3ccccc3F)cc(C(F)(F)F)c12 | 17.6 | > 20 | 
Nc1c(C(=O)NCc2cccs2)oc2nc(-c3ccccc3)cc(C(F)(F)F)c12 | 9.8 | > 20 | 
Nc1c(C(=O)N2CCOCC2)oc2nc(-c3ccccc3)cc(C(F)(F)F)c12 | 11.2 | > 20 | 
Nc1c(C(=O)N2CCOCC2)sc2nc(-c3cnccn3)cc(C(F)(F)F)c12 | > 20 | > 20 | 
Nc1c(C(=O)NC2CCCC2)sc2nc(-c3ccccc3)cc(C(F)(F)F)c12 | 5.5 | > 20 | 
Nc1c(C(=O)N2CCOCC2)sc2nc3c(c(C(F)(F)F)c12)CCc1ccccc1-3 | 3.9 | > 100 | CC50 at 72 h [5]: > 100 µM; CC50 at 72 h [6]: 72.7 µM; Ratio CC50/EC50 [7]: >25.6
O=C(c1cc2c(C(F)(F)F)cc(-c3ccccc3)nc2s1)N1CCOCC1 | 4.5 | > 100 | CC50 at 72 h [5]: > 100 µM; CC50 at 72 h [6]: 92.6 µM; Ratio CC50/EC50 [7]: >22.2
NC(=O)c1sc2nc(C3CC3)cc(C(F)(F)F)c2c1N | 12.2 | > 20 | 
CCOC(=O)c1oc2nc(-c3cccs3)cc(C(F)(F)F)c2c1N | 18.5 | > 20 | 
Nc1c(C(=O)N2CCOCC2)sc2nc(-c3cccc(F)c3)cc(C(F)(F)F)c12 | 6.7 | > 20 | 
NC(=O)c1sc2nc(-c3ccccc3)cc(C(F)(F)F)c2c1N | 8.2 | > 20 | 

Structure (SMILES) | EC50 (Hepatitis C virus [1]) [µM] | CC50 at 72 h [2] [µM] | further results
COc1cccc(-c2cc(C(F)(F)F)c3c(N)c(C(N)=O)sc3n2)c1 |  | > 20 | inhibition at 20 µM (Hepatitis C virus [8]): 45%
Nc1c(C(=O)N2CCNCC2)sc2nc(-c3ccccc3)cc(C(F)(F)F)c12 | 9.6 | > 20 | 
Nc1c(C(=O)N2CCSCC2)sc2nc(-c3ccccc3)cc(C(F)(F)F)c12 | 7.2 | > 20 | 
COc1ccccc1-c1cc(C(F)(F)F)c2c(N)c(C(=O)N3CCOCC3)sc2n1 | 8.3 | > 20 | 
CN(C)C(=O)c1sc2nc(-c3ccccc3)cc(C(F)(F)F)c2c1N | 8.2 | > 20 | 
CCOC(=O)c1oc2nc(-c3ccccc3)cc(C(F)(F)F)c2c1N | 6.8 | > 20 | 
COc1ccccc1-c1cc(C(F)(F)F)c2c(N)c(C(N)=O)sc2n1 | 14.3 | > 20 | 
Nc1c(C(=O)N2CCC(=O)CC2)sc2nc(-c3ccccc3)cc(C(F)(F)F)c12 | > 20 | > 20 | 
Nc1c(C(=O)N2CCOCC2)sc2nc(-c3ccccc3)cc(C(F)(F)F)c12 | 3.3 | > 100 | CC50 at 72 h [5]: 94.4 µM; CC50 at 72 h [6]: 85.1 µM; Ratio CC50/EC50 [7]: >30.3
Nc1c(C(=O)N2CCOCC2)sc2nc(-c3cccs3)cc(C(F)(F)F)c12 | 6.5 | > 20 | 
CCOC(=O)c1sc2nc(-c3ccccc3)cc(C(F)(F)F)c2c1N | 19.3 | > 20 | 
CC(C)(C)OC(=O)N1CCN(C(=O)c2sc3nc(-c4ccccc4)cc(C(F)(F)F)c3c2N)CC1 | > 20 | > 20 | 
Cc1cc(-c2ccccc2)nc2sc(C(=O)N3CCOCC3)c(N)c12 | 5.8 | > 20 | 
CCOC(=O)c1sc2nc(-c3ccco3)cc(C(F)(F)F)c2c1N | 5.7 | > 20 | 
Nc1c(C(=O)N2CCOCC2)sc2nc(-c3ccc(Cl)c(Cl)c3)cc(C(F)(F)F)c12 | > 20 | > 20 | 
CCOC(=O)c1sc2nc(C3CC3)cc(C(F)(F)F)c2c1N | 6.8 | > 20 | 
Nc1c(C(=O)N2CCCCC2)sc2nc(-c3ccccc3)cc(C(F)(F)F)c12 | 5.9 | > 20 | 
Nc1c(C(=O)N2CCOCC2)sc2nc(-c3ccccc3)ccc12 | 17.2 | > 20 | 
COc1ccc(-c2ccc3c(N)c(C(N)=O)sc3n2)cc1 | > 20 | < 0.4 | 
Nc1c(C(=O)N2CCn3c(nnc3C(F)(F)F)C2)sc2nc(-c3ccccc3)cc(C(F)(F)F)c12 | 3.3 | 45.2 | CC50 at 72 h [5]: 40.7 µM; CC50 at 72 h [6]: 28 µM; Ratio CC50/EC50 [7]: 13.7
COc1ccc(-c2cc(C(F)(F)F)c3c(N)c(C(=O)N4CCOCC4)sc3n2)cc1 | 10.3 | > 20 | 
Nc1c(C(=O)N2CCc3sccc3C2)sc2nc(-c3ccccc3)cc(C(F)(F)F)c12 | 12.5 | > 20 | 
COc1cccc(-c2cc(C(F)(F)F)c3c(N)c(C(=O)N4CCOCC4)sc3n2)c1 | 10.8 | > 20 | 
